Laboratory results from US7897602B2, “Indolinone compounds as kinase inhibitors” (Development Center for Biotechnology, priority 2009, dated 2011).

Columns and labels:
Assay type in all cases: biochemical
[1] = biological target: T1, Aurora B kinase (Homo sapiens, UniProt Q96GD4); assay: Aurora B kinase assay ([γ-33P]ATP, CHOCKtide substrate); conditions: 1.0 μM test compound
T1 construct: purchased Cell signaling
Procedure, shortened: (§1)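 Radiometric filter-binding format: 33P incorporation into CHOCKtide counted after acid stop and filtration. Reactions ran 30 min at 33 °C, Aurora A with 10 μM ATP, Aurora B with 40 μM ATP. IC50 taken as concentration giving half-maximal kinase inhibition.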

[2] = biological target: T2, VEGFR2 kinase (Homo sapiens, UniProt P35968); assay: VEGFR2 kinase assay (33P incorporation into Poly(Glu-Tyr)); conditions: 500 nM test compound; read-out: Inhibition at 500 nM (%) VEGFr-2
T2 construct: recombinant N-terminal 6×His-tagged VEGFR2 kinase domain construct expressed by baculovirus; 6xHis (N); made in house
Procedure, shortened: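 Recombinant baculovirus-expressed N-terminal His6-tagged VEGFR2 kinase domain (6.25 ng) phosphorylated poly(Glu-Tyr) 4:1 with 100 μM ATP plus [33P]-γ-ATP in MOPS pH 7.0, 30 °C, 30 min. Test compound was at 500 nM (4% DMSO). Filter-retained radioactivity relative to DMSO control gave % inhibition.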

[3] = biological target: T3, Aurora A kinase (Homo sapiens, UniProt O14965); assay: Aurora A kinase assay ([γ-33P]ATP, CHOCKtide substrate); conditions: 1.0 μM test compound
T3 construct: purchased Upstate
T3 sequence (O14965 1-403): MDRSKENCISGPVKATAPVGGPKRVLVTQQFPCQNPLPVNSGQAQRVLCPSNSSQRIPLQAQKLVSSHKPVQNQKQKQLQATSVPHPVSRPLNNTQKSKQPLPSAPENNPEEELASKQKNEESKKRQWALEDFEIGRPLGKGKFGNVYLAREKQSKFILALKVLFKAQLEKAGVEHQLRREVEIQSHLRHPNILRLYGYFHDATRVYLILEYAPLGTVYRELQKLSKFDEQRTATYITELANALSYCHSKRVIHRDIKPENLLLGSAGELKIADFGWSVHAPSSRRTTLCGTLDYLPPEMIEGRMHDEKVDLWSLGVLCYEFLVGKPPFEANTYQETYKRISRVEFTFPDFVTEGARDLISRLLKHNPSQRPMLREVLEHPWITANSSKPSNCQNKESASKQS
Procedure, shortened: as §1

[4] = biological target: T4, c-Met kinase (Homo sapiens, UniProt P08581); assay: c-Met kinase assay (33P incorporation into Poly(Glu-Tyr)); conditions: 500 nM test compound
T4 construct: recombinant N-terminal 6×His-tagged c-Met kinase domain construct expressed from baculovirus; 6xHis (N); made in house
Procedure, shortened: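 Single-concentration test (500 nM compound) at 30° C for 30 min, pH 7.0 MOPS buffer with 100 μM ATP and [33P]-γ-ATP. Enzyme was baculovirus-expressed 6×His c-Met kinase domain (5 ng), substrate Poly(Glu-Tyr) 4:1. Inhibition percentage derived from filter-bound counts relative to DMSO control.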

T1 sequence (Q96GD4 whole entry): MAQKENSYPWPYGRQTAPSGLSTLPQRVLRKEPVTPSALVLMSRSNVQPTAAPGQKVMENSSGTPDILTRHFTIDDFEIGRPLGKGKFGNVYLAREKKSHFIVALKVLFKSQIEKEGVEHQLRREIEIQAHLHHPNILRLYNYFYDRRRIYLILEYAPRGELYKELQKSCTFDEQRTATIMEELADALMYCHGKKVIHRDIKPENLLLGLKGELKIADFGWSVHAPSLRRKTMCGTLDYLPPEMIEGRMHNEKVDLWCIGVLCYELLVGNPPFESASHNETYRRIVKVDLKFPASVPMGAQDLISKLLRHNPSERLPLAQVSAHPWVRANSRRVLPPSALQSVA
T2 sequence (P35968 834-1162 limits assumed): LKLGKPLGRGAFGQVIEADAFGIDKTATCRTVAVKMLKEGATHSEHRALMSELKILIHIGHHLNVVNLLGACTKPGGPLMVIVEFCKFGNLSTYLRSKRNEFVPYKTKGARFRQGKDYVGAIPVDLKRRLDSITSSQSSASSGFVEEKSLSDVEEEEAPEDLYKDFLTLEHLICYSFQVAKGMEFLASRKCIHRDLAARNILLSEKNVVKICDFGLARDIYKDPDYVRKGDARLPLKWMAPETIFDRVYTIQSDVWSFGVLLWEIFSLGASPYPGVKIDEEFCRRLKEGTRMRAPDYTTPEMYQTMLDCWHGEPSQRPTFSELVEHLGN
T4 sequence (P08581 1078-1345 limits assumed): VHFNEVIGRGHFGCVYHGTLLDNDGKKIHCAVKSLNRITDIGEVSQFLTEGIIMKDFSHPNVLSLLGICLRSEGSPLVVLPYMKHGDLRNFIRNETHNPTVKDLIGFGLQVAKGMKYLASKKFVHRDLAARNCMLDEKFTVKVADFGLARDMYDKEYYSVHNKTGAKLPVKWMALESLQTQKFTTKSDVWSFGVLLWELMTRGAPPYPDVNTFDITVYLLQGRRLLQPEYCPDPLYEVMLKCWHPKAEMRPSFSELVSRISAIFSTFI

| inhibition at 1 µM [1] | inhibition at 0.5 µM [2] | inhibition at 1 µM [3] | inhibition at 0.5 µM [4] | Structure (SMILES) |
| --- | --- | --- | --- | --- |
| -23% | 28.9% | 9.8% | -1.2% | CCOC(=O)CCc1c(/C=C2\C(=O)Nc3ccc(NC(=O)c4ccc(OC)cc4)cc32)[nH]c2c1C(=O)CCC2 [DCB-70141, (Z)-ethyl 3-(2-((5-(4-methoxybenzamido)-2-oxoindolin-3-ylidene)methyl)-4-oxo-4,5,6,7-tetrahydro-1H-indol-3-yl)propanoate] |
| 9.1% | 38.1% | 31.8% | -8.2% | COc1ccc(C(=O)Nc2ccc3c(c2)/C(=C/c2[nH]c4c(c2CCC(=O)O)C(=O)CCC4)C(=O)N3)cc1 [DCB-70143, (Z)-3-(2-((5-(4-methoxybenzamido)-2-oxoindolin-3-ylidene)methyl)-4-oxo-4,5,6,7-tetrahydro-1H-indol-3-yl)propanoic acid] |
| 30.2% | 67.6% | 80.7% | 74.9% | CN(c1cccc(Cl)c1)S(=O)(=O)c1ccc2c(c1)/C(=C/c1[nH]c3c(c1CCC(=O)O)C(=O)CCCC3)C(=O)N2 [DCB-70148, (Z)-3-(2-((5-(N-(3-chlorophenyl)-N-methylsulfamoyl)-2-oxoindolin-3-ylidene)methyl)-4-oxo-1,4,5,6,7,8-hexahydrocyclohepta[b]pyrrol-3-yl)propanoic acid] |
| 18.7% | 57.5% | 77.5% | 8.4% | O=C(O)CCc1c(/C=C2\C(=O)Nc3ccc(S(=O)(=O)Nc4ccc(F)c(Cl)c4)cc32)[nH]c2c1C(=O)CCCC2 [DCB-70149, (Z)-3-(2-((5-(N-(3-chloro-4-fluorophenyl)sulfamoyl)-2-oxoindolin-3-ylidene)methyl)-4-oxo-1,4,5,6,7,8-hexahydrocyclohepta[b]pyrrol-3-yl)propanoic acid] |
